Reference: ChEMBL document CHEMBL4257522, “Synthesis and preliminary anti-inflammatory and anti-bacterial evaluation of some diflunisal aza-analogs” (Medchemcomm, 2018)
Active and inactive are the calls of the source. No cut-off for these calls is given here.

How the values were obtained:
Macrophage cell line [1] = assay: Antiinflammatory activity in human PBMC-differentiated macrophages assessed as inhibition of LPS-induced prostaglandin production at 0.01 to 10 uM measured after 24 hrs by ELISA; type: functional, cell-based
Escherichia coli [2] = assay: Potentiation of tetracycline-induced antibacterial activity against Escherichia coli ATCC 43894 assessed as minimum modulatory concentration up to 32 uM measured after 16 hrs in presence of MIC/4 tetracycline; type: functional; details: ATCC 43894, 16 h, read-out: MEC
Klebsiella pneumoniae [3] = assay: Potentiation of geneticin-induced antibacterial activity against Klebsiella pneumoniae ATCC 13883 assessed as minimum modulatory concentration up to 32 uM measured after 16 hrs in presence of MIC/4 geneticin; type: functional; details: ATCC 13883, 16 h, read-out: MEC
Staphylococcus aureus [4] = assay: Potentiation of tetracycline-induced antibacterial activity against Staphylococcus aureus ATCC 33592 assessed as minimum modulatory concentration up to 32 uM measured after 16 hrs in presence of MIC/4 tetracycline; type: functional; details: ATCC 33592, 16 h, read-out: MEC
Escherichia coli [5] = assay: Potentiation of methicillin-induced antibacterial activity against Escherichia coli ATCC 43894 assessed as minimum modulatory concentration up to 32 uM measured after 16 hrs in presence of MIC/4 methicillin; type: functional; details: ATCC 43894, 16 h, read-out: MEC
Streptococcus pyogenes [6] = assay: Potentiation of ciprofloxacin-induced antibacterial activity against Streptococcus pyogenes ATCC 14289 assessed as minimum modulatory concentration up to 32 uM measured after 16 hrs in presence of MIC/4 ciprofloxacin; type: functional; details: ATCC 14289, 16 h, read-out: MEC
Enterococcus faecium [7] = assay: Potentiation of tetracycline-induced antibacterial activity against Enterococcus faecium ATCC 700221 assessed as minimum modulatory concentration up to 32 uM measured after 16 hrs in presence of MIC/4 tetracycline; type: functional; details: ATCC 700221, 16 h, read-out: MEC
Enterococcus faecium [8] = assay: Potentiation of erythromycin-induced antibacterial activity against Enterococcus faecium ATCC 700221 assessed as minimum modulatory concentration up to 32 uM measured after 16 hrs in presence of MIC/4 erythromycin; type: functional; details: ATCC 700221, 16 h, read-out: MEC
Macrophage cell line [9] = assay: Antiinflammatory activity in human PBMC-differentiated macrophages assessed as inhibition of LPS-induced IL-8 production at 0.01 to 10 uM measured after 24 hrs by ELISA; type: functional, cell-based
Klebsiella pneumoniae [10] = assay: Potentiation of ciprofloxacin-induced antibacterial activity against Klebsiella pneumoniae ATCC 13883 assessed as minimum modulatory concentration up to 32 uM measured after 16 hrs in presence of MIC/4 ciprofloxacin; type: functional; details: ATCC 13883, 16 h, read-out: MEC
Streptococcus pyogenes [11] = assay: Toxicity in Streptococcus pyogenes ATCC 14289 up to 32 uM measured after 16 hrs; type: organism-based
Macrophage cell line [12] = assay: Induction of TNFalpha production in human PBMC-differentiated macrophages after 24 hrs by ELISA; type: cell-based
Staphylococcus aureus [13] = assay: Potentiation of methicillin-induced antibacterial activity against Staphylococcus aureus ATCC 33592 assessed as minimum modulatory concentration up to 32 uM measured after 16 hrs in presence of MIC/4 methicillin; type: functional; details: ATCC 33592, 16 h, read-out: MEC
Pseudomonas aeruginosa [14] = assay: Potentiation of geneticin-induced antibacterial activity against Pseudomonas aeruginosa ATCC BAA-2108 assessed as minimum modulatory concentration up to 32 uM measured after 16 hrs in presence of MIC/4 geneticin; type: functional; details: ATCC BAA-2108, 16 h, read-out: MEC
Staphylococcus aureus [15] = assay: Potentiation of erythromycin-induced antibacterial activity against Staphylococcus aureus ATCC 33592 assessed as minimum modulatory concentration up to 32 uM measured after 16 hrs in presence of MIC/4 erythromycin; type: functional; details: ATCC 33592, 16 h, read-out: MEC
Staphylococcus aureus [16] = assay: Potentiation of geneticin-induced antibacterial activity against Staphylococcus aureus ATCC 33592 assessed as minimum modulatory concentration up to 32 uM measured after 16 hrs in presence of MIC/4 geneticin; type: functional; details: ATCC 33592, 16 h, read-out: MEC
Pseudomonas aeruginosa [17] = assay: Potentiation of methicillin-induced antibacterial activity against Pseudomonas aeruginosa ATCC BAA-2108 assessed as minimum modulatory concentration up to 32 uM measured after 16 hrs in presence of MIC/4 methicillin; type: functional; details: ATCC BAA-2108, 16 h, read-out: MEC
Klebsiella pneumoniae [18] = assay: Potentiation of methicillin-induced antibacterial activity against Klebsiella pneumoniae ATCC 13883 assessed as minimum modulatory concentration up to 32 uM measured after 16 hrs in presence of MIC/4 methicillin; type: functional; details: ATCC 13883, 16 h, read-out: MEC
Pseudomonas aeruginosa [19] = assay: Potentiation of tetracycline-induced antibacterial activity against Pseudomonas aeruginosa ATCC BAA-2108 assessed as minimum modulatory concentration up to 32 uM measured after 16 hrs in presence of MIC/4 tetracycline; type: functional; details: ATCC BAA-2108, 16 h, read-out: MEC
Staphylococcus aureus [20] = assay: Potentiation of ciprofloxacin-induced antibacterial activity against Staphylococcus aureus ATCC 33592 assessed as minimum modulatory concentration up to 32 uM measured after 16 hrs in presence of MIC/4 ciprofloxacin; type: functional; details: ATCC 33592, 16 h, read-out: MEC
Klebsiella pneumoniae [21] = assay: Potentiation of erythromycin-induced antibacterial activity against Klebsiella pneumoniae ATCC 13883 assessed as minimum modulatory concentration up to 32 uM measured after 16 hrs in presence of MIC/4 erythromycin; type: functional; details: ATCC 13883, 16 h, read-out: MEC
Staphylococcus aureus [22] = assay: Toxicity in Staphylococcus aureus ATCC 33592 up to 32 uM measured after 16 hrs; type: organism-based
Streptococcus pyogenes [23] = assay: Potentiation of tetracycline-induced antibacterial activity against Streptococcus pyogenes ATCC 14289 assessed as minimum modulatory concentration up to 32 uM measured after 16 hrs in presence of MIC/4 tetracycline; type: functional; details: ATCC 14289, 16 h, read-out: MEC
Macrophage cell line [24] = assay: Induction of prostaglandin production in human PBMC-differentiated macrophages after 24 hrs by ELISA; type: cell-based
Streptococcus pyogenes [25] = assay: Potentiation of erythromycin-induced antibacterial activity against Streptococcus pyogenes ATCC 14289 assessed as minimum modulatory concentration up to 32 uM measured after 16 hrs in presence of MIC/4 erythromycin; type: functional; details: ATCC 14289, 16 h, read-out: MEC
Escherichia coli [26] = assay: Toxicity in Escherichia coli ATCC 43894 up to 32 uM measured after 16 hrs; type: organism-based
Enterococcus faecium [27] = assay: Potentiation of geneticin-induced antibacterial activity against Enterococcus faecium ATCC 700221 assessed as minimum modulatory concentration up to 32 uM measured after 16 hrs in presence of MIC/4 geneticin; type: functional; details: ATCC 700221, 16 h, read-out: MEC
Escherichia coli [28] = assay: Potentiation of erythromycin-induced antibacterial activity against Escherichia coli ATCC 43894 assessed as minimum modulatory concentration up to 32 uM measured after 16 hrs in presence of MIC/4 erythromycin; type: functional; details: ATCC 43894, 16 h, read-out: MEC
Klebsiella pneumoniae [29] = assay: Potentiation of tetracycline-induced antibacterial activity against Klebsiella pneumoniae ATCC 13883 assessed as minimum modulatory concentration up to 32 uM measured after 16 hrs in presence of MIC/4 tetracycline; type: functional; details: ATCC 13883, 16 h, read-out: MEC
Enterococcus faecium [30] = assay: Toxicity in Enterococcus faecium ATCC 700221 up to 32 uM measured after 16 hrs; type: organism-based; details: in vitro
Pseudomonas aeruginosa [31] = assay: Potentiation of erythromycin-induced antibacterial activity against Pseudomonas aeruginosa ATCC BAA-2108 assessed as minimum modulatory concentration up to 32 uM measured after 16 hrs in presence of MIC/4 erythromycin; type: functional; details: ATCC BAA-2108, 16 h, read-out: MEC
Streptococcus pyogenes [32] = assay: Potentiation of geneticin-induced antibacterial activity against Streptococcus pyogenes ATCC 14289 assessed as minimum modulatory concentration up to 32 uM measured after 16 hrs in presence of MIC/4 geneticin; type: functional; details: ATCC 14289, 16 h, read-out: MEC
Klebsiella pneumoniae [33] = assay: Toxicity in Klebsiella pneumoniae ATCC 13883 up to 32 uM measured after 16 hrs; type: organism-based

Row | SMILES | inhibition (Macrophage cell line [1]) | minimal effective concentration (Escherichia coli [2]) [µM] | minimal effective concentration (Klebsiella pneumoniae [3]) [µM] | minimal effective concentration (Staphylococcus aureus [4]) [µM] | minimal effective concentration (Escherichia coli [5]) [µM] | minimal effective concentration (Streptococcus pyogenes [6]) [µM] | minimal effective concentration (Enterococcus faecium [7]) [µM] | minimal effective concentration (Enterococcus faecium [8]) [µM] | inhibition (Macrophage cell line [9]) | minimal effective concentration (Klebsiella pneumoniae [10]) [µM] | Activity (Streptococcus pyogenes [11]) | Activity (Macrophage cell line [12]) | minimal effective concentration (Staphylococcus aureus [13]) [µM] | minimal effective concentration (Pseudomonas aeruginosa [14]) [µM] | minimal effective concentration (Staphylococcus aureus [15]) [µM] | minimal effective concentration (Staphylococcus aureus [16]) [µM] | minimal effective concentration (Pseudomonas aeruginosa [17]) [µM] | minimal effective concentration (Klebsiella pneumoniae [18]) [µM] | minimal effective concentration (Pseudomonas aeruginosa [19]) [µM] | minimal effective concentration (Staphylococcus aureus [20]) [µM] | also measured
1 | C[n+]1cc(O)c(C(=O)[O-])cc1-c1ccccc1 | inactive | > 32 | > 32 | > 32 | > 32 | > 32 | > 32 | > 32 | inactive | > 32 | Non-Toxic | Non-Toxic | > 32 | > 32 | > 32 | > 32 | > 32 | > 32 | > 32 | > 32 | minimal effective concentration (Klebsiella pneumoniae [21]): > 32 µM; Activity (Staphylococcus aureus [22]): Non-Toxic; minimal effective concentration (Streptococcus pyogenes [23]): > 32 µM; Activity (Macrophage cell line [24]): Non-Toxic; minimal effective concentration (Streptococcus pyogenes [25]): > 32 µM; Activity (Escherichia coli [26]): Non-Toxic; minimal effective concentration (Enterococcus faecium [27]): > 32 µM; minimal effective concentration (Escherichia coli [28]): > 32 µM; minimal effective concentration (Klebsiella pneumoniae [29]): > 32 µM; Activity (Enterococcus faecium [30]): Non-Toxic; minimal effective concentration (Pseudomonas aeruginosa [31]): > 32 µM; minimal effective concentration (Streptococcus pyogenes [32]): > 32 µM; Activity (Klebsiella pneumoniae [33]): Non-Toxic
2 | Cc1nc(-c2ccccc2)c(O)cc1C(=O)O | inactive | > 32 | > 32 | 4 | > 32 | > 32 | 1 | 4 | inactive | > 32 | Non-Toxic | Non-Toxic | 0.5 | > 32 | 4 | 4 | 16 | > 32 | > 32 | 16 | minimal effective concentration (Klebsiella pneumoniae [21]): > 32 µM; Activity (Staphylococcus aureus [22]): Non-Toxic; minimal effective concentration (Streptococcus pyogenes [23]): 4 µM; Activity (Macrophage cell line [24]): Non-Toxic; minimal effective concentration (Streptococcus pyogenes [25]): 4 µM; Activity (Escherichia coli [26]): Non-Toxic; minimal effective concentration (Enterococcus faecium [27]): 8 µM; minimal effective concentration (Escherichia coli [28]): > 32 µM; minimal effective concentration (Klebsiella pneumoniae [29]): > 32 µM; Activity (Enterococcus faecium [30]): Non-Toxic; minimal effective concentration (Pseudomonas aeruginosa [31]): 4 µM; minimal effective concentration (Streptococcus pyogenes [32]): 2 µM; Activity (Klebsiella pneumoniae [33]): Non-Toxic
3 | O=C(O)c1cnc(-c2ccccc2)c(O)c1 | inactive | > 32 | > 32 | 0.25 | > 32 | > 32 | 1 | 4 | inactive | > 32 | Non-Toxic | Non-Toxic | 0.5 | > 32 | 2 | 2 | 16 | > 32 | > 32 | > 32 | minimal effective concentration (Klebsiella pneumoniae [21]): > 32 µM; Activity (Staphylococcus aureus [22]): Non-Toxic; minimal effective concentration (Streptococcus pyogenes [23]): 4 µM; Activity (Macrophage cell line [24]): Non-Toxic; minimal effective concentration (Streptococcus pyogenes [25]): 4 µM; Activity (Escherichia coli [26]): Non-Toxic; minimal effective concentration (Enterococcus faecium [27]): 8 µM; minimal effective concentration (Escherichia coli [28]): > 32 µM; minimal effective concentration (Klebsiella pneumoniae [29]): > 32 µM; Activity (Enterococcus faecium [30]): Non-Toxic; minimal effective concentration (Pseudomonas aeruginosa [31]): 4 µM; minimal effective concentration (Streptococcus pyogenes [32]): 8 µM; Activity (Klebsiella pneumoniae [33]): Non-Toxic
